In patent US10988477B2 (Merck Patent GmbH, priority 2018, dated 2021):

The molecules below were run against GCN2 kinase (Homo sapiens, UniProt Q9P2K8) (assay: GCN2 enzyme inhibition assay (Transcreener ADP2 fluorescence polarization)). Conditions: Enzyme activity for compounds of Formula IV; Ki(app), 280 μM ATP, 25° C.
Type: biochemical
Procedure: Compounds were screened for their ability to inhibit GCN2 kinase activity using a Transcreener® ADP^2 fluorescence polarization assay that detects ADP levels (BellBrook Labs, WI). Assays were carried out in a buffer consisting of 25 mM Tris-HCl (pH 7.5), 50 mM NaCl, 10 mM MgCl2 and 1 mM DTT. Final substrate concentrations were 280 μM ATP and 200 μM peptidic substrate ([…]-OH [(RS)7], Bachem, Switzerland). Assays were carried out at 25° C. in the presence of a (typical) final concentration of 4 nM GCN2 kinase. An assay buffer containing GCN2 kinase and (RS)7 was prepared. 4.7 μL of this stock solution was placed per well of a black, low volume, 384-well microtitre plate (e.g. catalogue number 3676, Corning Inc., NY). To this was added […] of DMSO containing serial dilutions of the test compound (typical final concentrations of test compound were 0 to 8 μM). The plate was incubated for 10 minutes at 25° C. prior to the addition of 4.7 μL of ATP stock buffer to initiate the enzyme reaction. The reaction was allowed to proceed for 1 hour at 25° C., prior to the addition of 10 μL detection buffer (consisting of appropriate concentrations of ADP^2 antibody and ADP Alexa633 tracer in 1× stop and detect buffer as supplied by BellBrook Labs). […] Percentage inhibition of enzyme activity was then calculated at each compound dose. IC50 and Ki(app) (using known assay and kinetic parameters) values were calculated from percentage inhibition data using a non-linear, tight-binding algorithm. All data analysis was undertaken using the Screener® software package (Genedata, Switzerland).

GCN2 kinase, sequence (Q9P2K8 whole entry): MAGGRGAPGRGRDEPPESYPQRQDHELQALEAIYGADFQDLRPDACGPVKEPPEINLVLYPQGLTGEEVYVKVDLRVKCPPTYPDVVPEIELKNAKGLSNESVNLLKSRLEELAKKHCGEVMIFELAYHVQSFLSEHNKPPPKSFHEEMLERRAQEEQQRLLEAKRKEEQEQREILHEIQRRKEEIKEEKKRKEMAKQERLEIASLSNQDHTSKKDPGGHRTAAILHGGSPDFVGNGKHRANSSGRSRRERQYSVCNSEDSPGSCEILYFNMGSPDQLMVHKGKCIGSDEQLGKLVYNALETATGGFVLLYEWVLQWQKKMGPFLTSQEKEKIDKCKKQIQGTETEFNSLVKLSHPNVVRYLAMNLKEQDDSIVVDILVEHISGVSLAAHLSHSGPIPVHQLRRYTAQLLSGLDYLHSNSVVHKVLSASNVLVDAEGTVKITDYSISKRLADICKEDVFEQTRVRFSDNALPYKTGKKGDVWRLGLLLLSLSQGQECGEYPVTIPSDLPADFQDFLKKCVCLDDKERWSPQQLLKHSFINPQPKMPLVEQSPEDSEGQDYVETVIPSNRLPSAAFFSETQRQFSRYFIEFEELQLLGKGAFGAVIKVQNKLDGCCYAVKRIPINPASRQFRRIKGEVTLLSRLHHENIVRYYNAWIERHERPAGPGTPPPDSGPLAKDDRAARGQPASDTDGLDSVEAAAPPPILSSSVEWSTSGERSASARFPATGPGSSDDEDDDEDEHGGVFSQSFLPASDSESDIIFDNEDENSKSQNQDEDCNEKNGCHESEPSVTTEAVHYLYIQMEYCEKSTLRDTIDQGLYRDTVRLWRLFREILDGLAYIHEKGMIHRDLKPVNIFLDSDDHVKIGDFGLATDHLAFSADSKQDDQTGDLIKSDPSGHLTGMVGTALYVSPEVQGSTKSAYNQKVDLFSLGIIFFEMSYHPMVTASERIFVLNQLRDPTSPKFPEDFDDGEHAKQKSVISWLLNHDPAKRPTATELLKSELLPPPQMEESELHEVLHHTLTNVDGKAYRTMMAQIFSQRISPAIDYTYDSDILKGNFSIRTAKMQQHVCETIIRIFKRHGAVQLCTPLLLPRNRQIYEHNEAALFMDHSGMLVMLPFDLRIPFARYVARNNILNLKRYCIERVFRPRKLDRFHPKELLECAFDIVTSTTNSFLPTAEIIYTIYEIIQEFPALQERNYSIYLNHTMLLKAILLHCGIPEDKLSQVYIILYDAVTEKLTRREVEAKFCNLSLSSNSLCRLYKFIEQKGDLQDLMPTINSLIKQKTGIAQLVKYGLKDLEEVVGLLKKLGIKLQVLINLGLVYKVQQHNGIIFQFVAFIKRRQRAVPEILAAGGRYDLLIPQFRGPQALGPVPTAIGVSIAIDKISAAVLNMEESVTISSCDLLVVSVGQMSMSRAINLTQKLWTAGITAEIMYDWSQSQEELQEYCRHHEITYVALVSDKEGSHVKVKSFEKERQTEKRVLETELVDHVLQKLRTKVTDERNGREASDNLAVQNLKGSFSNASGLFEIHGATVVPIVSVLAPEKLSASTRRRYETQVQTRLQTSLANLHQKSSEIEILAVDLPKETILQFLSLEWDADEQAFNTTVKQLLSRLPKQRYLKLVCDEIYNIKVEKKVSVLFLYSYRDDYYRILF

Ki [nM]	Structure (SMILES)
100 to 1000	CC1CN(c2ccnc(-c3cnc4cnc(C(F)(F)F)cn34)n2)C(C)C(c2cn[nH]c2)N1 (single isomer, unassigned) [IV-223, 3-(4-(2,5-Dimethyl-3-(1H-pyrazol-4-yl)piperazin-1-yl)pyrimidin-2-yl)-6-(trifluoromethyl)imidazo[1,2-a]pyrazine]
100 to 1000	CC1C(c2cn[nH]c2)NCCN1c1ccnc(-c2cnc3cnc(Cl)cn23)n1 (single isomer, unassigned) [IV-229, 6-Chloro-3-(4-(2-methyl-3-(1H-pyrazol-4-yl)piperazin-1-yl)pyrimidin-2-yl)imidazo[1,2-a]pyrazine]
100 to 1000	FC(F)(F)c1cn2c(-c3nccc(N4CCNC(c5cn[nH]c5)C4)n3)cnc2cn1 (single isomer, unassigned) [IV-231, 3-(4-(3-(1H-Pyrazol-4-yl)piperazin-1-yl)pyrimidin-2-yl)-6-(trifluoromethyl)imidazo[1,2-a]pyrazine]
10 to 100	FC(F)(F)c1cn2c(-c3nccc(N4CCNC(c5cn[nH]c5)C4)n3)cnc2cn1 (single isomer, unassigned) [IV-232, 3-(4-(3-(1H-Pyrazol-4-yl)piperazin-1-yl)pyrimidin-2-yl)-6-(trifluoromethyl)imidazo[1,2-a]pyrazine]
100 to 1000	Clc1cn2c(-c3nccc(N4CCNC(c5cn[nH]c5)C4)n3)cnc2cn1 (single isomer, unassigned) [IV-237, 3-(4-(3-(1H-Pyrazol-4-yl)piperazin-1-yl)pyrimidin-2-yl)-6-chloroimidazo[1,2-a]pyrazine]
10 to 100	Clc1cn2c(-c3nccc(N4CCNC(c5cn[nH]c5)C4)n3)cnc2cn1 (single isomer, unassigned) [IV-238, 3-(4-(3-(1H-Pyrazol-4-yl)piperazin-1-yl)pyrimidin-2-yl)-6-chloroimidazo[1,2-a]pyrazine]
100 to 1000	CC1C(c2cn[nH]c2)OCCN1c1ccnc(-c2cnc3cnc(Cl)cn23)n1 (single isomer, unassigned) [IV-244, 4-(2-(6-Chloroimidazo[1,2-a]pyrazin-3-yl)pyrimidin-4-yl)-3-methyl-2-(1H-pyrazol-4-yl)morpholine]
100 to 1000	CC1CN(c2ccnc(-c3cnc4cnc(Cl)cn34)n2)C(C)C(c2cn[nH]c2)N1 (single isomer, unassigned) [IV-246, 6-Chloro-3-(4-(2,5-dimethyl-3-(1H-pyrazol-4-yl)piperazin-1-yl)pyrimidin-2-yl)imidazo[1,2-a]pyrazine]
100 to 1000	NC(=O)c1cn2c(-c3nccc(N4CCN5C(=O)CCCC5C4)n3)cnc2cn1 (single isomer, unassigned) [IV-273, 3-(4-(6-Oxooctahydro-2H-pyrido[1,2-a]pyrazin-2-yl)pyrimidin-2-yl)imidazo[1,2-a]pyrazine-6-carboxamide]
10 to 100	NC(=O)c1cn2c(-c3nccc(N4CCN5C(=O)CCCC5C4)n3)cnc2cn1 (single isomer, unassigned) [IV-274, 3-(4-(6-Oxooctahydro-2H-pyrido[1,2-a]pyrazin-2-yl)pyrimidin-2-yl)imidazo[1,2-a]pyrazine-6-carboxamide]
100 to 1000	C[C@H]1CN(c2cccc(-c3cnc4cnc(C(F)F)cn34)n2)C[C@@H](CNS(C)(=O)=O)C1(F)F (single isomer, unassigned) [IV-275]
< 10	Cc1[nH]ncc1C1NC(C)CN(c2ccnc(-c3cnc4cnc(Cl)cn34)n2)C1C (single isomer, unassigned) [IV-282, 6-Chloro-3-(4-(2,5-dimethyl-3-(5-methyl-1H-pyrazol-4-yl)piperazin-1-yl)pyrimidin-2-yl)imidazo[1,2-a]pyrazine]
100 to 1000	Cc1[nH]ncc1C1NC(C)CN(c2ccnc(-c3cnc4cnc(Cl)cn34)n2)C1C (single isomer, unassigned) [IV-283, 6-Chloro-3-(4-(2,5-dimethyl-3-(5-methyl-1H-pyrazol-4-yl)piperazin-1-yl)pyrimidin-2-yl)imidazo[1,2-a]pyrazine]
10 to 100	CC1CN(c2ccnc(-c3cnc4cnc(Br)cn34)n2)C(C)C(c2cn[nH]c2)N1 (single isomer, unassigned) [IV-287, 6-Bromo-3-(4-(2,5-dimethyl-3-(1H-pyrazol-4-yl)piperazin-1-yl)pyrimidin-2-yl)imidazo[1,2-a]pyrazine]
< 10	CC1C(c2cn[nH]c2)OCCN1c1ccnc(-c2cnc3cnc(C#N)cn23)n1 (single isomer, unassigned) [IV-290, 3-(4-(3-Methyl-2-(1H-pyrazol-4-yl)morpholino)pyrimidin-2-yl)imidazo[1,2-a]pyrazine-6-carbonitrile]
100 to 1000	CC1C(c2cn[nH]c2)OCCN1c1ccnc(-c2cnc3cnc(C#N)cn23)n1 (single isomer, unassigned) [IV-291, 3-(4-(3-Methyl-2-(1H-pyrazol-4-yl)morpholino)pyrimidin-2-yl)imidazo[1,2-a]pyrazine-6-carbonitrile]
10 to 100	O=C1CCCC2CN(c3ccnc(-c4cnc5cnc(Cl)cn45)n3)CCN12 (single isomer, unassigned) [IV-293, 2-(2-(6-Chloroimidazo[1,2-a]pyrazin-3-yl)pyrimidin-4-yl)octahydro-6H-pyrido[1,2-a]pyrazin-6-one]
10 to 100	O=C1CCCC2CN(c3ccnc(-c4cnc5cnc(Cl)cn45)n3)CCN12 (single isomer, unassigned) [IV-294, 2-(2-(6-Chloroimidazo[1,2-a]pyrazin-3-yl)pyrimidin-4-yl)octahydro-6H-pyrido[1,2-a]pyrazin-6-one]
100 to 1000	CCN1C(C)CN(c2ccnc(-c3cnc4cnc(C(F)(F)F)cn34)n2)C(C)C1c1cn[nH]c1 (single isomer, unassigned) [IV-295, 3-(4-(4-Ethyl-2,5-dimethyl-3-(1H-pyrazol-4-yl)piperazin-1-yl)pyrimidin-2-yl)-6-(trifluoromethyl)imidazo[1,2-a]pyrazine]
< 10	CCN1C(C)CN(c2ccnc(-c3cnc4cnc(C(F)(F)F)cn34)n2)C(C)C1c1cn[nH]c1 (single isomer, unassigned) [IV-296, 3-(4-(4-Ethyl-2,5-dimethyl-3-(1H-pyrazol-4-yl)piperazin-1-yl)pyrimidin-2-yl)-6-(trifluoromethyl)imidazo[1,2-a]pyrazine]
10 to 100	CC1CC(c2cn[nH]c2)C(C)N(c2ccnc(-c3cnc4cnc(C(F)(F)F)cn34)n2)C1 (single isomer, unassigned) [IV-310]
100 to 1000	CC1CN(c2ccnc(-c3cnc4cnc(C#N)cn34)n2)C(C)C(c2cn[nH]c2)N1 (single isomer, unassigned) [IV-313, 3-(4-(2,5-Dimethyl-3-(1H-pyrazol-4-yl)piperazin-1-yl)pyrimidin-2-yl)imidazo[1,2-a]pyrazine-6-carbonitrile]
< 10	CC1CN(c2ccnc(-c3cnc4cnc(C#N)cn34)n2)C(C)C(c2cn[nH]c2)N1 (single isomer, unassigned) [IV-314, 3-(4-(2,5-Dimethyl-3-(1H-pyrazol-4-yl)piperazin-1-yl)pyrimidin-2-yl)imidazo[1,2-a]pyrazine-6-carbonitrile]
10 to 100	CC1C(c2cn[nH]c2)OCCN1c1ccnc(-c2cnc3cnc(C(F)(F)F)cn23)n1 (single isomer, unassigned) [IV-315, 3-Methyl-2-(1H-pyrazol-4-yl)-4-(2-(6-(trifluoromethyl)imidazo[1,2-a]pyrazin-3-yl)pyrimidin-4-yl)morpholine]
100 to 1000	CC1C(c2cn[nH]c2)OCCN1c1ccnc(-c2cnc3cnc(Cl)cn23)n1 (single isomer, unassigned) [IV-316, 4-(2-(6-Chloroimidazo[1,2-a]pyrazin-3-yl)pyrimidin-4-yl)-3-methyl-2-(1H-pyrazol-4-yl)morpholine]
10 to 100	CC1CN(c2nc(-c3cnc4cnc(C(F)(F)F)cn34)ncc2F)C(C)C(c2cn[nH]c2)N1 (single isomer, unassigned) [IV-324, 3-(4-(2,5-Dimethyl-3-(1H-pyrazol-4-yl)piperazin-1-yl)-5-fluoropyrimidin-2-yl)-6-(trifluoromethyl)imidazo[1,2-a]pyrazine]
< 10	CC1C(c2cn[nH]c2)OCCN1c1ccnc(-c2cnc3cnc(Br)cn23)n1 (single isomer, unassigned) [IV-328, 4-(2-(6-Bromoimidazo[1,2-a]pyrazin-3-yl)pyrimidin-4-yl)-3-methyl-2-(1H-pyrazol-4-yl)morpholine]
10 to 100	CC1C(c2cn[nH]c2)OCCN1c1ccnc(-c2cnc3cnc(Br)cn23)n1 (single isomer, unassigned) [IV-329, 4-(2-(6-Bromoimidazo[1,2-a]pyrazin-3-yl)pyrimidin-4-yl)-3-methyl-2-(1H-pyrazol-4-yl)morpholine]
10 to 100	CC1CNC(c2cn[nH]c2)CN1c1ccnc(-c2cnc3cnc(C(F)(F)F)cn23)n1 (single isomer, unassigned) [IV-333, 3-(4-(2-Methyl-5-(1H-pyrazol-4-yl)piperazin-1-yl)pyrimidin-2-yl)-6-(trifluoromethyl)imidazo[1,2-a]pyrazine]
100 to 1000	CC1CN(c2nc(-c3cnc4cnc(C(F)(F)F)cn34)ncc2F)CC(c2cn[nH]c2)O1 (single isomer, unassigned) [IV-334, 4-(5-Fluoro-2-(6-(trifluoromethyl)imidazo[1,2-a]pyrazin-3-yl)pyrimidin-4-yl)-2-methyl-6-(1H-pyrazol-4-yl)morpholine]
